# Source: ChEMBL document CHEMBL5360560, “Anti-Vibrio potential of natural products from marine microorganisms” (Eur J Med Chem, 2023)
# Columns and labels:
# [1] = tested on: Vibrio harveyi; experiment: Antimicrobial activity against Vibrio harveyi BB120 assessed as bacterial growth inhibition by bioluminescence based Quorum-Sensing assay; format: functional, organism-based
# [2] = tested on: Vibrio parahaemolyticus; experiment: Antimicrobial activity against Vibrio parahaemolyticus assessed as bacterial growth inhibition by broth dilution assay; format: functional
# [3] = tested on: Vibrio anguillarum; experiment: Antimicrobial activity against Vibrio anguillarum assessed as bacterial growth inhibition by broth dilution assay; format: functional
# [4] = tested on: Vibrio alginolyticus; experiment: Antimicrobial activity against Vibrio alginolyticus assessed as bacterial growth inhibition by broth dilution assay; format: functional
# [5] = tested on: Vibrio harveyi; experiment: Antimicrobial activity against Vibrio harveyi QDIO-7 assessed as bacterial growth inhibition by microplate reader assay; format: functional
# [6] = tested on: Vibrio vulnificus; experiment: Antimicrobial activity against Vibrio vulnificus assessed as bacterial growth inhibition; format: functional
# [7] = tested on: Vibrio harveyi; experiment: Antimicrobial activity against Vibrio harveyi assessed as bacterial growth inhibition by microplate reader assay; format: functional
# [8] = tested on: Vibrio anguillarum; experiment: Antimicrobial activity against Vibrio anguillarum assessed as bacterial growth inhibition by microplate reader assay; format: functional
# [9] = tested on: Vibrio anguillarum; experiment: Antimicrobial activity against Vibrio anguillarum assessed as zone of inhibition per disc at 100 ug measured after 24 hrs by disc diffusion assay; format: functional; conditions: read-out: IZ
# [10] = tested on: Vibrio parahaemolyticus; experiment: Antimicrobial activity against Vibrio parahaemolyticus assessed as bacterial growth inhibition; format: functional
# [11] = tested on: Vibrio harveyi; experiment: Antimicrobial activity against Vibrio harveyi assessed as bacterial growth inhibition; format: functional
# [12] = tested on: Vibrio anguillarum; experiment: Antimicrobial activity against Vibrio anguillarum QDIO-6 assessed as bacterial growth inhibition by microtiter plate assay; format: functional
# [13] = tested on: Vibrio anguillarum; experiment: Antibacterial activity against Vibrio anguillarum assessed as bacterial growth inhibition; format: functional
# [14] = tested on: Vibrio harveyi; experiment: Antibacterial activity against Vibrio harveyi assessed as bacterial growth inhibition; format: functional
# [15] = tested on: Vibrio anguillarum; experiment: Antimicrobial activity against Vibrio anguillarum assessed as bacterial growth inhibition; format: functional
structure (smiles),measurement,setting,value
CCOC(=O)C[C@H](O)COC(=O)/C=C/CCl,IC50,[1],17.6 µM
CC(=O)O[C@H]1CC[C@@]2(C)[C@@H](CC[C@H]3Cc4c([nH]c5ccccc45)[C@@]32C)[C@]1(C)CC[C@@H](O)C(C)(C)O,MIC,[2],12.5 µM
same,MIC,[3],12.5 µM
same,MIC,[4],12.5 µM
CC(C)/C=C1\NC(=O)[C@@H](Cc2ccccc2)n2c1nc1ccccc1c2=O,MIC,[5],64 µg/mL
CCCCCC(=O)NCCc1ccccc1,IC50,[1],99 µM
COc1cc(O)c2c(=O)c(C)c(C)oc2c1O,MIC,[6],32 µg/mL
CC[C@H](C)[C@@H]1NC(=O)[C@@H](Cc2ccccc2)n2c1nc1c(c2=O)C=CC=CO1,MIC,[5],64 µg/mL
C/C(=C\[C@H]1OC(=O)[C@@H](C)[C@@H]1C)[C@H]1CCC2=C3C=CC4=CC(=O)CC[C@]4(C)[C@H]3CC[C@@]21C,MIC,[2],25 µg/mL
same,MIC,[3],25 µg/mL
same,MIC,[4],25 µg/mL
C=C(C)[C@@H]1COc2c(C)cc3oc4c(C[C@H](OC(C)=O)C(C)(C)O)ccc(O)c4c(=O)c3c2[C@@H]1O,MIC,[2],1.56 µM
same,MIC,[3],1.56 µM
same,MIC,[4],1.56 µM
COc1cc(O)c2c(=O)c(C)c(C)oc2c1OC,MIC,[6],64 µg/mL
C[C@@]1(O)C=C[C@H]2C[C@@H](CO)CC[C@@H]2[C@@]1(C)C(=O)CCO,MIC,[7],4 µg/mL
same,MIC,[8],4 µg/mL
C[C@@H]1C[C@H](O)CC(=O)C/C=C/[C@@H](O)CC(=O)O1,MIC,[2],25 µM
C[C@@H]1CC[C@@H]2[C@H](C=C[C@](C)(O)[C@@]2(C)C(=O)CCO)C1,MIC,[7],4 µg/mL
same,MIC,[8],4 µg/mL
CO[C@@H]1CC(=O)C/C=C/[C@@H](O)CC(=O)O[C@H](C)C1,MIC,[2],12.5 µM
O=C1N[C@](O)(Cc2ccccc2)C(=O)N2CCC[C@H]12,zone of inhibition at 100 µg/disc,[9],20 mm
COc1cc(O)c2c(c1)C(=O)[C@@H]1C[C@](C)(O)[C@H](O)[C@H](O)[C@]1(O)C2=O,MIC,[10],50 µM
COc1ccc2c3c4n(c2c1)C(C=C(C)C)OOC(C)(C)C[C@@H]4N1C(=O)[C@@H]2CCCN2C(=O)[C@]1(O)[C@H]3O (some centres not stated),MIC,[11],16 µg/mL
COC(=O)[C@H](O)CS[C@@H]1CCCCCCC[C@@H](C)OC(=O)C1,MIC,[12],2 µg/mL
Nc1ccccc1C(=O)C[C@H]1NC(=O)[C@H]2CCCN2C1=O,MIC,[11],50 µM
C[C@@H]1Cc2ccc(O)c(O)c2C(=O)O1,MIC,[13],0.5 µg/mL
same,MIC,[14],32 µg/mL
CC(C)/C=C1/NC(=O)[C@H](CCC(N)=O)n2c1nc1ccccc1c2=O,MIC,[7],8 µg/mL
O=C1NCc2nc3ccccc3c(=O)n2C1Cc1c[nH]c2ccccc12 (configuration not stated),MIC,[11],16 µg/mL
COc1c(Cl)c(O)cc2c1C(=O)c1c(O)cc(COC(C)=O)cc1C2=O,MIC,[2],10 µM
CC[C@H](C)C[C@H](C)/C=C(\C)c1cc(=O)cc(O)o1,MIC,[2],6.25 µg/mL
O=C1N[C@@H]2c3nc4ccccc4c(=O)n3[C@H]1CC21C(=O)Nc2ccccc21 (some centres not stated),MIC,[11],16 µg/mL
COC(=O)[C@H](O)CS[C@H]1CC(=O)O[C@H](C)CCCCCC[C@@H]1O,MIC,[12],4 µg/mL
COC(=O)CC[C@H]1C(=O)N/C(=C\C(C)C)c2nc3ccccc3c(=O)n21,MIC,[7],8 µg/mL
C[C@@]12C=C[C@@H]3C[C@H](CO)CC[C@@H]3[C@]1(C)C(=O)C=CO2,MIC,[7],4 µg/mL
same,MIC,[8],4 µg/mL
CCCCc1cc(O)c2ccccc2n1,MIC,[14],0.5 µg/mL
C=C(C)[C@H]1COc2c(C)cc3oc4c([C@@H](OC)[C@@H](O)C(=C)C)ccc(O)c4c(=O)c3c2[C@@H]1O,MIC,[2],1.56 µM
same,MIC,[3],1.56 µM
same,MIC,[4],1.56 µM
COc1cc(O)c2c(c1)C(=O)C1=C(C[C@@H](O)[C@@](C)(O)C1)C2=O [ALTERSOLANOL B],MIC,[10],25 µM
same,MIC,[2],2.5 µg/mL
same,MIC,[3],5 µg/mL
CC(C)/C=C1\NC(=O)[C@H](CCC(N)=O)n2c1nc1ccccc1c2=O [AURANTIOMIDE C],MIC,[7],8 µg/mL
C[C@H](O)[C@H](Cl)C1=C[C@H](O)[C@@H](C)OC1=O [CHLOROHYDROASPYRONE A],MIC,[13],0.5 µg/mL
same,MIC,[14],32 µg/mL
C[C@H](Cl)[C@@H](O)C1=C[C@H](O)[C@@H](C)OC1=O [CHLOROHYDROASPYRONE B],MIC,[13],0.5 µg/mL
same,MIC,[14],32 µg/mL
O=C(O)c1cn(C2CC2)c2cc(N3CCNCC3)c(F)cc2c1=O [CIPROFLOXACIN],MIC,[15],20 µM
same,MIC,[11],32 µg/mL
same,zone of inhibition at 100 µg/disc,[9],26 mm
C=C(C)C1(O)OC(=O)C=C1OC (configuration not stated) [PENICILLIC ACID],MIC,[13],0.5 µg/mL
same,MIC,[14],32 µg/mL
C=C(C)[C@H]1COc2c(C)cc3oc4c(C[C@H](O)C(C)(C)O)ccc(O)c4c(=O)c3c2[C@@H]1O [TAJIXANTHONEHYDRATE],MIC,[2],1.56 µM
same,MIC,[3],1.56 µM
same,MIC,[4],1.56 µM
